The values below come from paper PMC9232612, “A phase 1b randomised controlled trial of a glucagon-like peptide-1 and glucagon receptor dual agonist IBI362 (LY3305677) in Chinese patients with type 2 diabetes” (Nature Communications, 2022).

Data set [1] has as its system Chinese patients with T2D. The data set is described as follows: Mixed-meal tolerance test (MTT) and fasting: OXM. The class given is in vivo, human. The note with it: week 12; patients receiving IBI362. The protocol:
(§1) HbA1c (2200101, Bio-Rad, USA), blood glucose (05168791190, Roche Diagnostics, Germany), insulin (12017547122, Roche Diagnostics, Germany), C peptide (03184897190, Roche Diagnostics, Germany), total GLP-1 (GLP-1 [7–36] amide and its metabolite, GLP-1 [9–36] amide, 10-1278-01, Mercodia AB, Sweden) and OXM (AL-139, AnshLabs, USA) tests were performed according to the manufactures’ instruction manuals in a central laboratory (KingMed Diagnostics, Guangzhou, China). HbA1c was measured using a Bio-rad D-100 Haemoglobin Testing System (Bio-rad). Blood glucose was measured using a Roche Cobas c702 analyser (Roche Diagnostics). Insulin and C peptide were measured using a Roche […] analyser (Roche Diagnostics). GLP-1 and OXM were measured using a Tecan Infinite M Plex microplate reader (TECAN).
(§2) Standard non-compartmental pharmacokinetics methods were used to analyze IBI362 plasma concentration data using Pkanalix 2020R1 (Lixoft, Antony, France). Secondary efficacy outcomes included change from baseline to week 12 in HbA1c, fasting plasma glucose (FPG), fasting insulin levels, change from baseline to week 12 in post-mixed-meal tolerance test (post-MTT) glucose, insulin, C peptide, GLP-1 and OXM levels, as well as seven-point self-measured blood glucose (SMBG) profile. […]
(§3) bag is added and mixed well. The time is counted from the first bite of eating. […]

The nature of data set [2]: Physical and chemical characteristics of drug substance (solubility, PI). Type of data set: physicochemical. The source says: IBI362 Innovent Biologics (Suzhou) Co., Ltd. CIBI362A101
IBI362 or placebo, the patient, the investigator, and all personnel involved in the clinical evaluation will be blinded to the treatment from the randomization to database locked, […]
Different drug numbers corresponded to random numbers after randomization in the IWRS, and the unblinding information remained unknown to patients and investigators throughout the trial. The randomization table will be kept by a designated […]
The study drug and placebo will be packaged, labeled, administered at the same time, and will have the appearance, taste, and smell exactly the same to hide the real situation of the treatment drug.
If necessary for the safety of the subject, emergency unblinding must be performed […]
If a patient is randomized to receive active control, the patient will not be blinded.
Sponsor will not be blinded during this study.
5.2.1 Physical and Chemical Characteristics of Drug Substance
Molecular weight: 4560.32 Dalton
Description: White to off-white powder
Solubility: Vehicle: 20 mM Tris buffer pH 8.0 and
Solubility: Not less than 10 mg/mL at
Solubility Description: Sparingly or
5.2.2 Study Drug Strength and Manufacturer
IBI362 is formulated as IBI362 for injection in a strength of 2 mg per vial and […]
The strength of the formulation used in this study is 2 mg/vial; Manufacturer: […]

Data set [3] relates to Chinese patients with T2D. The data set is described as follows: Mixed-meal tolerance test (MTT) and fasting: total GLP-1. Type of data set: in vivo, human. The settings on record: week 12; patients receiving IBI362. The protocol: as §1, §2
3. […]
as §3

The conditions of data set [4]: single dose range of 0.03-5 mg; earlier study, ref not given; cited from earlier work. The source says: page 21: safety follow-up visit. The safety data of this patient was collected and included in the analysis. We made this clear in the Results (Lines 210-213). 6. For the tables that present treatment emergent adverse events (Table 2 and Supplementary Table 2), do the numbers in the table correspond to the number of events, or the number of patients who experienced at least one event? Response: Safety data in this study were presented as number of patients (percentage). We made this clear in the footnotes (Fig. 2 and S3) of relevant tables and apologized for the neglect. 7. For Supplementary T ...

For `CC(C)C[C@H](NC(=O)[C@H](CC(C)C)NC(=O)[C@H](Cc1c[nH]c2ccccc12)NC(=O)[C@H](CCC(=O)O)NC(=O)[C@@H](NC(=O)[C@H](Cc1ccccc1)NC(=O)[C@H](CCC(=O)O)NC(=O)[C@H](CCCCNC(=O)COCCOCCNC(=O)COCCOCCNC(=O)CC[C@H](NC(=O)CCCCCCCCCCCCCCCCCCC(=O)O)C(=O)O)NC(=O)[C@H](C)NC(=O)[C@H](CCCCN)NC(=O)[C@H](CCCCN)NC(=O)[C@H](CCC(=O)O)NC(=O)[C@H](CC(=O)O)NC(=O)[C@H](CC(C)C)NC(=O)[C@H](Cc1ccc(O)cc1)NC(=O)[C@H](CCCCN)NC(=O)[C@H](CO)NC(=O)[C@H](Cc1ccc(O)cc1)NC(=O)[C@H](CC(=O)O)NC(=O)[C@H](CO)NC(=O)[C@@H](NC(=O)[C@H](Cc1ccccc1)NC(=O)[C@@H](NC(=O)CNC(=O)[C@H](CCC(N)=O)NC(=O)C(C)(C)NC(=O)[C@@H](N)Cc1c[nH]cn1)[C@@H](C)O)[C@@H](C)O)C(C)C)C(=O)N[C@@H](CCC(=O)O)C(=O)NCC(=O)NCC(=O)N1CCC[C@H]1C(=O)N[C@@H](CO)C(=O)N[C@@H](CO)C(=O)NCC(N)=O` [IBI362], in data set [1], the “post-MTT OXM excursion” value was “markedly suppressed”. Besides, in data set [2] (drug substance), the PI came out at 5.2. Further, in data set [2] (vehicle 20 mM Tris buffer pH 8.0 and 150 mM sodium chloride, 25℃), the Solubility entry was “Not less than 10 mg/mL”. The “post-MTT GLP-1 excursion” value in data set [3] is “markedly suppressed”. Besides, the pharmacokinetic profile entry in data set [4] is listed as “linear”.
